Assay results from ChEMBL document CHEMBL1152382, “Synthesis of novel quinoxaline derivatives and its cytotoxic activities” (Bioorg Med Chem Lett, 2009).

Assay: Cytotoxicity against human HeLaS3 cells after 48 hrs by MTT assay
Assay type: functional, cell-based
Conditions: HeLa S3, 48 h

Row | SMILES | IC50
1 | O=C1Nc2cc([N+](=O)[O-])ccc2N2CCCCC12 (stereo not given) | > 30 µM
2 | O=C1Nc2ccccc2N2CCCC12 (stereo not given) | > 30 µM
3 | CC1(C)Nc2ccccc2NC1=O | > 30 µM
4 | Cc1ccc2c(c1)N1CCCCC1C(=O)N2 (stereo not given) | 18.1 µM
5 | N#Cc1ccc2c(c1)N1CCCCC1C(=O)N2 (stereo not given) | 7.6 µM
6 | CC(C)C1Nc2ccccc2NC1=O (stereo not given) | 4.85 µM
7 | O=C1Nc2cc(OC(F)(F)F)ccc2N2CCCCC12 (stereo not given) | > 30 µM
8 | O=C1Nc2ccccc2NC12CCCCC2 | > 30 µM
9 | CC(C)(C)C1Nc2ccccc2NC1=O (stereo not given) | > 30 µM
10 | Cc1cnc2c(c1)N1CCCCC1C(=O)N2 (stereo not given) | > 30 µM
11 | O=C1Nc2cccnc2N2CCCCC12 (stereo not given) | > 30 µM
12 | O=C1Nc2ccccc2N2Cc3ccccc3CC12 (stereo not given) | > 30 µM
13 | CCC(C)C1Nc2cc(Cl)ccc2NC1=O (stereo not given) | 17.2 µM
14 | O=C1Nc2ccccc2NC1Cc1ccccc1 (stereo not given) | > 30 µM
15 | O=C1Nc2ccc(Cl)cc2N2CCCCC12 (stereo not given) | 4.96 µM
